Results from patent publication US20180369143A1, “METAL COMPLEXED THERAPEUTIC AGENTS AND LIPID-BASED NANOPARTICULATE FORMULATIONS THEREOF” (BRITISH COLUMBIA CANCER AGENCY BRANCH, priority 2015, published 2018).
≈ marks a conversion by molar mass, not a printed value. Entries after “also recorded” stand apart in the source; their conditions may differ.

Tests used:
U251 (glioblastoma line) = experiment: 72 h cytotoxicity, IN CELL Analyzer, U251 cells; format: cell-based, human
Method: The U251MG glioblastoma cell line (formerly known as U-373 MG) was originally obtained from American Type Culture Collection (Manassas, Va.) and was used for a maximum of fifteen passages. […] U87, U251MG^O, A549 and MDA231-BR cells were maintained in DMEM (Gibco) supplemented with 2 mM L-glutamine (Gibco) and 10% fetal bovine serum (Gibco). […] All cells were maintained at 37° C. and 5% CO2 The cells were seeded into 384 well plates and allowed to grow for 24 hrs and then treated as specified for 72 hours. To assess the cytotoxic effects of the indicated compounds in adherent cell lines, the cells were stained with Hoescht 33342 and ethidium homodimer I for total and dead cell counts, respectively. Twenty minutes later, the cells were imaged using an In Cell Analyzer 2200 and cell viability was measured based on viable nuclei count.

A549 (lung cancer line) = experiment: 72 h cytotoxicity, A549 cells; format: cell-based, human
Method: (§1) For studies with DDC, the cell lines U87, and A549 were obtained from ATCC, HBEpC (Human Bronchial Epithelial Cells) was obtained from Cell Applications (San Deigo, Calif.) and MDA-231-BR was from the NIH/NCI. The U251MG glioblastoma cell line (formerly known as U-373 MG) was originally obtained from American Type Culture Collection (Manassas, Va.) and was used for a maximum of fifteen passages. Subsequently, the U251MG was obtained from Sigma-Aldrich (product number 09063001). […] Both cell lines are now being maintained as separate lines U251MG^O (original line) and U251MG^SA (Sigma-Aldrich). […] Twenty minutes later, the cells were imaged using an In Cell Analyzer 2200 and cell viability was measured based on viable nuclei count. For the suspension cell line MV-4-11, cells were incubated with the PrestoBlue reagent (Life Technologies) at 37° C. and 5% CO2 for 1 hour, after which cell viability was evaluated based on metabolic activity as measured with the FLUOstar OPTIMA microplate reader (BMG Labtech).
(§2) The anticancer activity of clioquinol (CQ) in cancer lines through copper dependent and independent pathways was examined. […] Cell viability was assessed based on loss of plasma membrane integrity 72 hours following treatment. Total cell count and dead cell count were determined using Hoechst 33342 and ethidium homodimer staining, respectively. […]

[1] = test system: A2780-CP (human ovarian carcinoma, platinum insensitive); experiment: 72 h cytotoxicity, IN CELL Analyzer, A2780-CP cells; format: cell-based
Method: (§3) The anticancer activity of clioquinol (CQ) in cancer lines through copper dependent and independent pathways was examined. Both CQ (-●-) and Cu(CQ)2 (-▪-) were dissolved in DMSO and diluted to a final concentration of <0.5% (at higher concentrations (>100 μM) of Cu(CQ)2, precipitated drug could be seen under the microscope). A2780-S (human ovarian carcinoma, platinum sensitive), A2780-CP (human ovarian carcinoma, platinum insensitive) as well as A549 (human lung cancer), U251 (human glioblastoma) cytotoxicity curves (FIG. 22 A-D) were obtained with the IN CELL Analyzer 2200. Cell viability was assessed based on loss of plasma membrane integrity 72 hours following treatment. Total cell count and dead cell count were determined using Hoechst 33342 and ethidium homodimer staining, respectively. The CQ cytotoxicity curve in MV-4-11 (human leukemia) was generated using PrestoBlue reagent to establish cell viability through metabolic activity.

MV-4-11 (leukemia) cells = experiment: 72 h cytotoxicity (PrestoBlue), MV-4-11 cells; format: cell-based, human
Method: as §1, with “Labtech). […]” for “Labtech).”
as §2

[2] = test system: A2780-S (human ovarian carcinoma, platinum sensitive); experiment: 72 h cytotoxicity, IN CELL Analyzer, A2780-S cells; format: cell-based
Method: FIG. 26 Clioquinol metal complex cytotoxicity in A2780-S (ovarian cancer) cells. (A) Cytotoxicity curves for CQ (-●-), Cu(CQ)2 (-▪-) and Zn(CQ)2 (-♦-) were obtained using the INCELL analyzer where viability was assessed based on loss of plasma membrane integrity 72 hours following treatment; i.e., total cell count and dead cell count were determined using Hoechst 33342 and ethidium homodimer staining, respectively. Results are given as mean ±SEM (B) IC50 values of CQ and metal complexes in A2780-S (IC50±95% CI).
as §3, with “The CQ cytotoxicity curve in MV-4-11 (human leukemia) was generated using PrestoBlue reagent to establish cell viability through metabolic activity.” left out

[3] = test system: MV-4-11, HCT116WT, HCT116B18 and HCT116B46 cells; experiment: Cytotoxicity IC50 comparison of CX5461 with metal salts in a cell panel; format: cell-based
Method: as §1, with “(Sigma-Aldrich). U87, U251MG^O, A549 and MDA231-BR cells were maintained in DMEM (Gibco) supplemented with 2 mM L-glutamine (Gibco) and 10% fetal bovine serum (Gibco). HBEpC were grown in bronchial/tracheal epithelial growth medium obtained from Cell Applications and were used for a maximum of three passages.” for “(Sigma-Aldrich).”, “Labtech). […]” for “Labtech).”

[4] = Plasma elimination of CX5461, free versus liposomal; format: in vivo; conditions: within 1 hour of injection
Method: Cu(DDC)2 was measured by using Cu as a surrogate marker. Samples were diluted in 0.1% HNO3 and subsequently the Cu concentration was measured using AAS (AAnalyst600, Perkin Elmer) as described above. Plasma Cu was corrected using untreated CD-1 mouse plasma as a blank. […] All other compounds were measured using HPLC as summarized below using a Waters Alliance HPLC Module 2695 and photodiode array detector model 996 and Empower 2 Software. […] Similarly, the quantification of CX5461 was performed in acidified methanol to dissociate the complex and CX5461 was measured at 300 nm following separation on a Luna C18 column (5 μm, 4.6×150 mm). The mobile phase contained a 1:1.2 mixture of 0.1% TFA in water and 0.1% TFA in methanol. A 5 μL sample volume was injected, the flow rate was set at 1 mL/min and the column temperature was 35° C.

[5] = test system: H460 (non-small cell lung cancer); experiment: 72-hour cytotoxicity assay, H460 cells; format: cell-based
[6] = test system: MDA-231BR (triple negative breast cancer line); experiment: 72 h cytotoxicity, IN CELL Analyzer, MDA-231BR cells; format: cell-based; conditions: copper+DDC
Method: as §1, with “(Sigma-Aldrich). U87, U251MG^O, A549 and MDA231-BR cells were maintained in DMEM (Gibco) supplemented with 2 mM L-glutamine (Gibco) and 10% fetal bovine serum (Gibco). HBEpC were grown in bronchial/tracheal epithelial growth medium obtained from Cell Applications and were used for a maximum of three passages.” for “(Sigma-Aldrich).”

[7] = test system: normal human bronchial epithelial cells HBEpC; experiment: 72 h cytotoxicity, normal bronchial epithelial cells; format: cell-based
Method: as §1, with “(Sigma-Aldrich). U87, U251MG^O, A549 and MDA231-BR cells were maintained in DMEM (Gibco) supplemented with 2 mM L-glutamine (Gibco) and 10% fetal bovine serum (Gibco). HBEpC were grown in bronchial/tracheal epithelial growth medium obtained from Cell Applications and were used for a maximum of three passages.” for “(Sigma-Aldrich).”

[8] = Aqueous solubility of metal complexes (qualitative); format: physicochemical
U87 glioblastoma cells = experiment: cells; format: cell-based; conditions: for IC50: Homo sapiens, U-87 MG, absence of copper, 72 h
Method: For studies with DDC, the cell lines U87, and A549 were obtained from ATCC, HBEpC (Human Bronchial Epithelial Cells) was obtained from Cell Applications (San Deigo, Calif.) and MDA-231-BR was from the NIH/NCI. The U251MG glioblastoma cell line (formerly known as U-373 MG) was originally obtained from American Type Culture Collection (Manassas, Va.) and was used for a maximum of fifteen passages. Subsequently, the U251MG was obtained from Sigma-Aldrich (product number 09063001). […] Both cell lines are now being maintained as separate lines U251MG^O (original line) and U251MG^SA (Sigma-Aldrich). U87, U251MG^O, A549 and MDA231-BR cells were maintained in DMEM (Gibco) supplemented with 2 mM L-glutamine (Gibco) and 10% fetal bovine serum (Gibco). HBEpC were grown in bronchial/tracheal epithelial growth medium obtained from Cell Applications and were used for a maximum of three passages. All cells were maintained at 37° C. and 5% CO2 The cells were seeded into 384 well plates and allowed to grow for 24 hrs and then treated as specified for 72 hours. To assess the cytotoxic effects of the indicated compounds in adherent cell lines, the cells were stained with Hoescht 33342 and ethidium homodimer I for total and dead cell counts, respectively. Twenty minutes later, the cells were imaged using an In Cell Analyzer 2200 and cell viability was measured based on viable nuclei count. For the suspension cell line MV-4-11, cells were incubated with the PrestoBlue reagent (Life Technologies) at 37° C. and 5% CO2 for 1 hour, after which cell viability was evaluated based on metabolic activity as measured with the FLUOstar OPTIMA microplate reader (BMG Labtech).
Cytotoxicity results were obtained with an IN CELL™ Analyzer in U87 glioblastoma cells. Cell viability was assessed based on detection of plasma membrane integrity 72 hours following treatment. Total and dead cell counts were determined using Hoeschst 33342 and ethidium homodimer staining.

[9] = Solubility of quercetin in water and HEPES buffer saline; format: physicochemical
Method: (or 22° C.) for 60 minutes in 2 mL of the respective buffers. […] The time points for dissolution were 5, 10, 15, 30 and 60 minutes.
(38 μg/mL). A supersaturated solution of quercetin-HBS remained stable over a one-hour period once removed from heat.

With `Oc1c(I)cc(Cl)c2cccnc12` [CQ, Clioquinol] the “copper dependence of CQ activity” value (U251 (glioblastoma line)) was “copper independent”, the “copper dependence of CQ activity” value (A549 (lung cancer line)) was “copper dependant” and the “copper dependence of CQ activity” value [1] was “copper dependant”. The “copper dependence of CQ activity” value (MV-4-11 (leukemia) cells) was “copper independent” and the “copper dependence of CQ activity” value [2] was “copper dependant”.
For `Cc1cnc(CNC(=O)c2c(=O)c3ccc(N4CCCN(C)CC4)nc3n3c2sc2ccccc23)cn1` [CX5461], the “effect of equimolar copper on anti-cancer activity” value (MV-4-11 (leukemia) cells; 72 h) was “does not alter”, the “activity (IC50) versus low pH preparation of metal-free compound” value ([3]; combined with CuSO4, dissolution at pH 7.4) was “statistically similar” and the “activity (IC50) versus low pH preparation of metal-free compound” value ([3]; combined with ZnSO4, dissolution at pH 7.4) was “statistically similar”. The “compound removed from circulation” value [4] was 96% and the “effect of equimolar copper on anti-cancer activity” value [5] was “does not alter”.
With `CCN(CC)C(=S)[S-].CCN(CC)C(=S)[S-].[Cu+2]` [Cu(DDC)2] the IC50 [6] was 329 nM, the IC50 (U251 (glioblastoma line); copper+DDC) was 345 nM and the “activity against normal cells” value [7] was “little activity”. For the same compound, the “solubility in water / aqueous solution” value [8] was “highly insoluble; also recorded: almost completely insoluble” and the IC50 (A549 (lung cancer line); copper+DDC) was 880 nM.
In the case of `CCN(CC)C(=S)S` [DDC, Diethyldithiocarbamate], the IC50 (U87 glioblastoma cells) is reported as over 10000 nM.
In the case of `CCN(CC)C(=S)SSC(=S)N(CC)CC` [DSF, Disulfiram], the “shift in cytotoxicity in the presence of copper” value (U87 glioblastoma cells) is reported as 2 orders of magnitude and the IC50 (U87 glioblastoma cells) is reported as over 10000 nM.
Work on `O=c1c(O)c(-c2ccc(O)c(O)c2)oc2cc(O)cc(O)c12` [quercetin, Quercetin] yielded a solubility at 60 min ([9]; 60 °C, water, thermodynamic from solid) of 12.3 µg/mL (≈ 40.8 µM), a solubility ([9]; 60 min) of 38 µg/mL (≈ 126 µM) and a solubility ([9]; HBS, room temperature) of 7.78 µg/mL (≈ 25.7 µM).
